Laboratory results published in article PMC8966651, “PKPD Modeling of the Inoculum Effect of Acinetobacter baumannii on Polymyxin B in vivo” (Frontiers in Pharmacology, 2022).
Counter-ions that a name gives are not always drawn. Like-named read-outs stand apart in the source and are kept apart here. Bridge positions count the residues as written; N and C are the ends. Square brackets hold non-standard residues; d marks the D form. Peptide text beside a SMILES is read from it. * marks the point of attachment. X1 = CC[C@H](C)CCCCC(=O)*; Dab = NCC[C@H](N)C(=O)O

Experiments:
[1] = PMB pharmacokinetics after a single subcutaneous dose in neutropenic thigh-infected mice (two-compartment model); assay type: in vivo; conditions: for Tmax: neutropenic mice infected with 10^6 CFU/thigh, n = 3 per time point, read-out: time to peak (Tmax)
Description: Animal experiments were carried out according to the EC Directive 2010/63/EU. They were approved by the local ethics committee (COMETHEA) and registered by the French Ministry of Higher Education and Research (approval numbers: 2019022216097190 and 2017072415099072). Five-week-old male Swiss RjOrl mice (n = 296) weighing 34 ± 2 g (mean ± standard deviation [SD]) were obtained from Janvier Labs (Saint-Berthevin, France). All animals were acclimatized in ventilated racks in a temperature-regulated environment with a 12 h light-dark cycle, with free access to food and water for a minimum of 5 days before the beginning of the experiment. Neutropenia was induced by intraperitoneal administrations of cyclophosphamide at 150 and 100 mg/kg, 4 days and 1 day prior to experimental infection, respectively ([Landersdorfer et al., 2018]). Thigh infection was induced by intramuscular administration of 0.1 ml of a bacterial suspension of 10^6, 10^7 or 10^8 CFU/ml (corresponding to 10^5, 10^6 and 10^7 CFU/thigh, respectively), into one of the posterior thigh muscles. Thus, three groups of mice were distinguished according to the inoculum injected (n = 76, 146 and 74 for 10^5, 10^6 and 10^7 CFU/thigh, respectively) Each group was divided into two subgroups: treated (n = 48, 116 and 45 for 10^5, 10^6 and 10^7 CFU/thigh, respectively) and control mice (n = 28, 30 and 29 for 10^5, 10^6 and 10^7 CFU/thigh, respectively).
Two hours after bacterial inoculation, mice received either a single subcutaneous administration of PMB (1, 15 or 40 mg/kg for mice infected with 10^6 and 10^7 CFU/thigh, and 15 or 40 mg/kg for mice infected with 10^5 CFU/thigh), or a subcutaneous administration of saline solution (control group).
(§1) The PK of PMB was determined in neutropenic mice infected with the bacterial inoculum size of 10^6 CFU/thigh (n = 56). Mice were anesthetized by isoflurane (AbbVie, Rungis, France) inhalation (3%) for 5 min at each sampling time. Blood samples were collected by intracardiac puncture into heparinized tubes up to 24 h after PMB administration for a total of 7 time points per dose level (n = 3 animals per time point). Plasma was separated from the whole blood after centrifugation at 4,000 rpm for 10 min at 4°C and divided into two samples. The first sample was used to determine total PMB concentrations and the second one (0.15 ml) was ultrafiltered (4000 rpm for 30 min at room temperature) using Centrifree® ultrafiltration devices from Millipore (Merck KGaA) to determine unbound PMB concentrations and consequently protein binding. The non-specific binding of PMB to the membrane of the Centrifree® ultrafiltration devices ([Sader et al., 2012]) was determined by ultrafiltration of PMB solutions in phosphate buffer (pH7.2) at concentrations ranging from 0.2 to 7.5 mg/L and was used to correct ultrafiltrate concentrations. Plasma samples and ultrafiltrates were stored at −20°C until further analysis. Total and unbound PMB concentrations were determined by a liquid chromatography tandem mass spectrometry (LS-MS/MS) method (Supplemental Material).
A PKPD model was developed in two steps to quantify the exposure-effect relationship of PMB in infected mice. First, time courses of total and unbound PMB concentrations were modeled and then, PK parameters were fixed during development of the PD part of the PKPD model.
Different structural models including one, two or three compartments, linear, nonlinear (Michaelis-Menten) or parallel linear/nonlinear elimination were evaluated to describe PK data. Models with linear and nonlinear absorption were also tested. Additive, proportional and exponential residual error models were explored.
Model selection was based on objective function value (OFV) and goodness of fit (GOF) plots. When two models were nested, a decrease in OFV of at least 3.84 (chi square 1df p = 0.05) was needed to select the most complex model. […]

[2] = PMB plasma protein binding by ultrafiltration (Centrifree) of plasma from infected mice; assay type: in vitro ADME; conditions: mouse plasma
Description: as §1
A saturable non-specific binding (NSB) of PMB to the ultrafiltration membrane, translating to a non-linear decrease of PMB NSB when PMB concentration increased, was observed (Supplementary Figure S1) and could be described by the following equation: NSB = 0.47−0.16×ln(UF) (3) Where NSB corresponds to the non-specific binding (%) and UF to PMB concentrations in ultrafiltrates (mg/L). Equation 3 was used to correct ultrafiltrates concentrations, as follows: Unbound concentrations = UF/1−NSB (4)

[3] = SC, highest dose 32 mg/kg; ref Landersdorfer et al., 2018; cited from earlier work
Description: These new study results can be compared with those previously obtained in relatively similar conditions, at least from PK standpoint ([Landersdorfer et al., 2018]). In both studies PMB was administered subcutaneously to neutropenic mice infected with K. pneumoniae ([Landersdorfer et al., 2018]) or A. baumannii, leading to saturable absorption rate. However although Landersdorfer et al. used a model with parallel linear and saturable absorption, an Emax model was sufficient to provide satisfactory fit of our data. Noticeably, while this nonlinear absorption was important to consider for PK and ...

[4] = final PK model, estimate (%RSE)

CC[C@H](C)CCCCC(=O)N[C@@H](CCN)C(=O)N[C@H](C(=O)N[C@@H](CCN)C(=O)N[C@H]1CCNC(=O)[C@H]([C@@H](C)O)NC(=O)[C@H](CCN)NC(=O)[C@H](CCN)NC(=O)[C@H](CC(C)C)NC(=O)[C@@H](Cc2ccccc2)NC(=O)[C@H](CCN)NC1=O)[C@@H](C)O [PMB, Polymyxin B sulfate] (X1-[Dab]T[Dab][Dab][Dab][dF]L[Dab][Dab]T; lactam 4-C)
increase of total Cmax when dose increased from 1 to 40 mg/kg ([1]; SC, plasma, infected mice): 15 fold | Maximum absorption rate ([1]; final PK model, saturable SC absorption, estimate (%RSE), doses 1, 15, 40 mg/kg): 14.7 (10.3) mg/h/kg | Amount in the subcutaneous compartment that produces 50% of the maximum absorption rate [1, 4]: 2.24 (41.4) mg/kg | Distribution volume of the central compartment [1, 4]: 0.740 (16.7) L/kg | Distribution volume of the peripheral compartment [1, 4]: 0.743 (16.4) L/kg | Intercompartmental clearance [1, 4]: 0.315 (27.3) L/h/kg | Cmax ([1]; male, Swiss RjOrl, mouse, plasma, sc, 1 mg/kg, plasma, single SC dose 1 mg/kg, mean ± SD, infected mice 10^6 CFU/thigh, LC-MS/MS, SD, read-out: Total PMB peak concentration (Cmax)): 920 ± 140 ng/mL | Cmax ([1]; male, Swiss RjOrl, mouse, plasma, sc, 40 mg/kg, plasma, single SC dose 40 mg/kg, mean ± SD, infected mice 10^6 CFU/thigh, LC-MS/MS, SD, read-out: Total PMB peak concentration (Cmax)): 13800 ± 810 ng/mL | Cmax ([1]; male, Swiss RjOrl, mouse, plasma, sc, 40 mg/kg, this study, SC, highest dose 40 mg/kg, read-out: peak concentrations at the highest dose): 15000 ng/mL | CL/F ([1]; male, Swiss RjOrl, mouse, plasma, sc, final PK model, linear elimination, estimate (%RSE), read-out: Clearance (converted)): 7.28 mL/min/kg | Tmax ([1]; male, Swiss RjOrl, mouse, plasma, single SC dose 1 mg/kg, LC-MS/MS): 0.5 h | Tmax ([1]; male, Swiss RjOrl, mouse, plasma, single SC dose 40 mg/kg, LC-MS/MS): 2 h | fraction unbound ([2]; male, Swiss RjOrl, sc, infected mice, ultrafiltration 4000 rpm 30 min room temperature, corrected for non-specific binding to membrane, LC-MS/MS, model estimate (%RSE)): 0.166 | unbound fraction ([2]; infected mice, ultrafiltration corrected for non-specific binding, model estimate): 17% | plasma protein binding ([2]; ultrafiltration, this study): ~80% | peak concentrations at the highest dose [3]: ~20 mg/L
